In ChEMBL document CHEMBL1146545, “Ainigmaptilones, sesquiterpenes from the Antarctic gorgonian coral Ainigmaptilon antarcticus” (J Nat Prod, 2003) one finds Activity data, which are given here for one compound.

Active and inactive are the calls of the source. No cut-off for these calls is given here.

For the experiment, the system named is Antarctic bacterium. In words: Antimicrobial activity against Antarctic bacteria at 5 mg/mL. The class given is functional, organism-based.

As for `C=C(C)[C@@H]1CC[C@]2(CO)C=CC(=O)[C@@H](C)[C@H]2C1`, the outcome was Active.
